Measurements taken from paper PMC10857906, “PROTAC-mediated NR4A1 degradation as a novel strategy for cancer immunotherapy” (The Journal of Experimental Medicine, 2024).

Tests used:
PK study in mice = assay type: in vivo, C57BL/6 mice; details: mouse
Protocol: The PK study of NR-V04 was done by Bioduro Inc. on three healthy male C57BL/6 mice weighing between 20 and 25 g in each group. Test compound (i.v.) was dissolved in 5% DMSO/3% tween 80 in PBS with 0.5 mEq 1N HCl and was administered (n = 3 per group) at a dose level of 2 mg/kg (concentration: 0.4 mg/ml). Test compounds (i.p.) were dissolved in 5% DMSO/3% tween 80 in PBS with 2 mEq 1N HCl (concentration […]) and were administrated at a dose level of 20 mg/kg. Plasma samples (i.v.) were collected from the orbital plexus at 0.083, 0.25, 0.5, 1.0, 2.0, 4.0, 8.0, and 24 h, and plasma samples (i.p.) were collected from the orbital plexus at 0.25, 0.50, 1.0, 2.0, 4.0, 8.0, and 24 h after dosing. The drug concentrations in the samples were quantified by LC/tandem MS. PK parameters were calculated from the mean plasma concentration by non-compartmental analysis.

splenic B cells = assay: B cell proliferation assay (splenic B cells, B16F10 lysate, Cell Trace Violet); assay type: cell-based, mouse; details: WT B cells with B16F10 lysates, 250 or 500 nM, 24 h
Protocol: B cells were isolated from the spleen by using EasySep Mouse B cell Isolation Kit (19854; STEMCELL) and cultured in RPMI supplemented with […] non-essential amino acids (11140050; Thermo Fisher Scientific), 1 mM sodium pyruvate (11360070; Thermo Fisher Scientific), 1 mM Glutamax, 10 mM HEPES (15630080; Thermo Fisher Scientific), 0.1% 2-mercaptoethanol (21985023; Thermo Fisher Scientific), 10% FBS (F2442; Sigma-Aldrich) and 100 U/ml penicillin, and 100 µg/ml streptomycin (P4333; Sigma-Aldrich). B cells were stained with 5 nM CellTrace Violet Cell (C34557; Thermo Fisher Scientific) for 8 min in a 37°C water bath. B cells were plated at a concentration of 5 × 10^5 cells per 200 μl in round-bottom 96-well plates treated with 0.1% B16F10 melanoma cell lysis or 10 µg/ml goat anti-mouse IgM F(ab′)2 (115-006-020; Jackson ImmunoResearch). B cells were treated with NR-V04 or DMSO for 24 h and collected for flow cytometry analysis.
Mouse tumors were excised and ∼200 mg of tumor tissue was enzymatically and mechanically digested using the mouse Tumor Dissociation Kit (Miltenyi Biotec) to obtain a single-cell suspension. […] Flow cytometry was performed on a three laser Cytek Aurora Cytometer (Cytek Biosciences) and analyzed using FlowJo software (BD Biosciences). […]

CC1=C(O)C(=O)C=C2C1=CC=C1[C@@]2(C)CC[C@@]2(C)[C@@H]3C[C@](C)(C(=O)NCCOCCOCCOCCOCC(=O)N[C@H](C(=O)N4C[C@H](O)C[C@H]4C(=O)N[C@@H](C)c4ccc(-c5scnc5C)cc4)C(C)(C)C)CC[C@]3(C)CC[C@]12C [NR-V04]
clearance (PK study in mice; male, C57BL/6, plasma, IV 2 mg/kg): 0.162 mL/min/kg
clearance rate (in words) (PK study in mice): low clearance rate
B cell proliferation (splenic B cells): significantly increased B cell proliferation
NR4A1 in B cells (splenic B cells): led to NR4A1 degradation in B cells
